Measurements as given in US20230304058A1, “NOVEL 5'CAP ANALOG HAVING CAP2 STRUCTURE AND PREPARATION METHOD THEREFOR” (Shenzhen Rhegen Biotechnology Co., Ltd., priority 2020, published 2023).

Legend:
[1] = background; cited from earlier work
[2] = system: TLR3, TLR7, TLR8 and RIG-1; test: Intracellular immunogenicity of capped mRNA by RNA immunoprecipitation and quantitative PCR; type: cell-based; settings: relative to ARCA; Human-derived PBMC cells, 5 μg mRNA, Lipofectamine 2000, 24 h
Outline: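 Cells harvested 24 h later, fixed, lysed; TLR3, TLR7, TLR8 and RIG-1 immunoprecipitated with bound RNA (antibody 2-10 μg, 2 h, 4° C, then protein A/G beads 1 h). Co-precipitated RNA reverse transcribed and quantified by qPCR; precipitated mRNA copy number taken as proportional to immunogenicity.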

T7 Enzyme Mix = T7 Enzyme Mix (Escherichia phage T7, UniProt P00573); settings: background, co-transcriptional capping; cited from earlier work
Sequence of T7 Enzyme Mix (P00573 whole entry): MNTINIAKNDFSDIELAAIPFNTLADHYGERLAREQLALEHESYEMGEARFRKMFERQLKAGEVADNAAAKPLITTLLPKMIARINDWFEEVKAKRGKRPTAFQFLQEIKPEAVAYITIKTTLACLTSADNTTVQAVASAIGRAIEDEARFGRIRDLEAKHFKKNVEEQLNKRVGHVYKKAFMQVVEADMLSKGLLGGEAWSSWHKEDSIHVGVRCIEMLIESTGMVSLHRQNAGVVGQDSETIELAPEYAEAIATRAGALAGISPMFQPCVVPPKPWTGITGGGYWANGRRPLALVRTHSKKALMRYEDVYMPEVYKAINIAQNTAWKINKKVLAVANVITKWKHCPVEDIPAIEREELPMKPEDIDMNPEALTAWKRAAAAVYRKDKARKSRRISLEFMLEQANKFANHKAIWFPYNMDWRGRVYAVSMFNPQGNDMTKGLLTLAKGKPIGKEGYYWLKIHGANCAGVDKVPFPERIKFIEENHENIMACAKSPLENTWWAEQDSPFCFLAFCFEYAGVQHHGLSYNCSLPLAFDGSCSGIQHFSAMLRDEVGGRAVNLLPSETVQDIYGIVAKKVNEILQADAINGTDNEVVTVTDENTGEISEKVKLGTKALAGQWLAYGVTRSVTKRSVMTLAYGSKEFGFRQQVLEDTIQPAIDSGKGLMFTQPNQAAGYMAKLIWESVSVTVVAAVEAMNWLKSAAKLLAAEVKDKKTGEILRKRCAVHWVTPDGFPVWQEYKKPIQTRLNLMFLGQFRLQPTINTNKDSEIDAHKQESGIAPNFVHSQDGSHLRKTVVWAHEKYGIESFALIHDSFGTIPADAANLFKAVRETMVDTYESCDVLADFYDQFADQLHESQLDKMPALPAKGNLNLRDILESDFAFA

mRNA = settings: background, co-transcriptional capping; cited from earlier work

## CO[C@H]1[C@@H](O)[C@H](n2c[n+](C)c3c(=O)[nH]c(N)nc32)O[C@@H]1COP(=O)(O)OP(=O)(O)OP(=O)(O)OC[C@H]1O[C@@H](n2cnc3c(=O)[nH]c(N)nc32)[C@H](O)[C@@H]1O [ARCA]
[1]
  immunogenicity of transcribed product: highly immunogenic
[2]
  Intracellular immunogenicity of mRNA when using different Cap structures: 1
T7 Enzyme Mix
  RNA prepared per ml of transcription reaction system: ≤ 1.5 mg
mRNA
  capping efficiency: 70%

## COC1C(OP(=O)(O)OCC2OC(n3cnc4c(=O)[nH]c(N)nc43)C(O)C2O)C(COP(=O)(O)OP(=O)([O-])OP(=O)(O)OCC2OC(n3c[n+](C)c4c(=O)[nH]c(N)nc43)C(O)C2O)OC1n1cnc2c(N)ncnc21 (centres unmarked) [Cleancap]
[1]
  immunogenicity of transcribed product: less immunogenic than ARCA
[2]
  Intracellular immunogenicity of mRNA when using different Cap structures: 0.76
T7 Enzyme Mix
  RNA prepared per ml of transcription reaction system: 4 mg
mRNA
  capping efficiency: 90%
